Among the test systems are MDA-MB-231 breast; T-47D breast; KM12 colon; SK-MEL-2 melanoma; UACC-62 melanoma; RPMI-8226 leukemia; SW-620 colon; IGROV1 ovarian; MALME-3M melanoma; NCI-H522 lung; SF-539 CNS; SNB-75 CNS.
Test in all cases: NCI-60 cell line screen, 48 h

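Step 1: Grow cells in 96-well plates. Step 2: Expose to compound for 48 hours at 5 concentrations. Step 3: Interpolate endpoints linearly; if unreached, use highest concentration. TGI marks complete inhibition of growth.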

Take `CCOC(=O)c1sc2nc(SC)nc3c2c1NCN3c1ccc2c(c1)OCO2`: the TGI was 43 µM with MDA-MB-231 breast; above 100 µM in the test on T-47D breast; above 100 µM with KM12 colon; 58.8 µM in the test on SK-MEL-2 melanoma; 31.8 µM in the test with UACC-62 melanoma; above 100 µM in the test on RPMI-8226 leukemia. For the same compound, the TGI in the test with SW-620 colon was 45.1 µM; in the test on IGROV1 ovarian, above 100 µM; in the test on MALME-3M melanoma it was 53.2 µM; with NCI-H522 lung, 98.1 µM; with SF-539 CNS, 51.1 µM.
For the compound `O=C(NC1CCN(Cc2ccccc2)CC1)c1ccc(I)cc1`, the TGI in the test with MDA-MB-231 breast, with T-47D breast, in the test on KM12 colon, with SK-MEL-2 melanoma, in the test with UACC-62 melanoma and in the test with RPMI-8226 leukemia was above 100 µM in each case. The TGI in the test with SW-620 colon, in the test on IGROV1 ovarian, with NCI-H522 lung and in the test on SF-539 CNS was above 100 µM throughout.
For `CC(C)(C)C1=CC(C)(n2[nH]c(=O)n(-c3ccccc3)c2=O)C=C(C(C)(C)C)C1=O`, the TGI in the test on SNB-75 CNS, in the test with MDA-MB-231 breast, in the test with T-47D breast, with KM12 colon, in the test with SK-MEL-2 melanoma and with UACC-62 melanoma was above 100 µM in each case. Also, the TGI with RPMI-8226 leukemia, in the test with SW-620 colon, with MALME-3M melanoma, with NCI-H522 lung and in the test on SF-539 CNS was above 100 µM each time.
On to `CCCCc1ccc(-n2sc3ncc(C)cc3c2=O)cc1`, for which the TGI in the test with SNB-75 CNS was above 100 µM; in the test with MDA-MB-231 breast, 44.5 µM; in the test with T-47D breast, 63.1 µM; with KM12 colon, above 100 µM; in the test with SK-MEL-2 melanoma, above 100 µM; in the test with UACC-62 melanoma it was above 100 µM. For the same compound, the TGI is 99 µM with RPMI-8226 leukemia; 78 µM in the test on SW-620 colon; above 100 µM in the test with IGROV1 ovarian; 90.1 µM with MALME-3M melanoma; 40.6 µM with NCI-H522 lung.
Regarding `CC1=NN(c2nc(N)nc(/C(C#N)=C\c3csc([N+](=O)[O-])c3)n2)C(C)(C)C1`, the TGI in the test with MDA-MB-231 breast is 64 µM; with T-47D breast, 56.9 µM; with KM12 colon, above 100 µM; with SK-MEL-2 melanoma, 81 µM; in the test on RPMI-8226 leukemia it was above 100 µM; in the test on SW-620 colon, above 100 µM. The TGI is above 100 µM with IGROV1 ovarian, 50.1 µM in the test on NCI-H522 lung and above 100 µM in the test on SF-539 CNS.
In the case of `[N-]=[N+]=NI1OC(=O)c2ccccc21`, the TGI with SNB-75 CNS, with MDA-MB-231 breast, in the test on T-47D breast, in the test on KM12 colon, in the test with SK-MEL-2 melanoma and in the test on UACC-62 melanoma was above 100 µM in each case. Moreover, the TGI was 65.7 µM in the test on RPMI-8226 leukemia; above 100 µM with SW-620 colon; above 100 µM in the test on IGROV1 ovarian; 40.6 µM in the test on NCI-H522 lung; above 100 µM in the test on SF-539 CNS.
For `CC1(C)OC(=S)N(c2ccccc2)C12C=Cc1ccccc1O2` (centres undefined), the TGI was above 100 µM in the test on SNB-75 CNS; above 100 µM in the test on MDA-MB-231 breast; 82.4 µM in the test with T-47D breast; above 100 µM in the test on KM12 colon; above 100 µM in the test with SK-MEL-2 melanoma; above 100 µM in the test with UACC-62 melanoma. Besides, the TGI in the test on RPMI-8226 leukemia, in the test with SW-620 colon, in the test with IGROV1 ovarian and in the test with NCI-H522 lung was above 100 µM throughout.
`CC1(C)CC[C@]2(C)CC[C@]3(C)C(=CC[C@@H]4[C@@]5(C)CCC(=O)C(C)(C)[C@@H]5[C@H](O)C[C@]43C)[C@@H]2C1`: the TGI in the test with MDA-MB-231 breast is 23.7 µM; in the test with T-47D breast, 37.7 µM; in the test with KM12 colon, 37.9 µM; with SK-MEL-2 melanoma, 30 µM; with UACC-62 melanoma, 29.4 µM; in the test with RPMI-8226 leukemia, 53.2 µM. Besides, the TGI in the test with SW-620 colon worked out at 42.2 µM; in the test on IGROV1 ovarian, 32.1 µM; in the test on MALME-3M melanoma, 31.6 µM; with NCI-H522 lung it was 31.9 µM; with SF-539 CNS, 32.1 µM.
For `c1ccc2oc(-c3ccc(-c4nc5ccccc5o4)c4c3CC4)nc2c1`, the TGI in the test with SNB-75 CNS, in the test with MDA-MB-231 breast, with T-47D breast, in the test with KM12 colon, with SK-MEL-2 melanoma and in the test with UACC-62 melanoma was above 100 µM in each case. Besides, the TGI in the test with RPMI-8226 leukemia, in the test with SW-620 colon, in the test on IGROV1 ovarian, in the test on MALME-3M melanoma and in the test on SF-539 CNS was above 100 µM throughout.
`Cc1cn(CCCCC2=NCCCN2)c(=O)[nH]c1=O`: the TGI is above 28.6 µM in the test with SNB-75 CNS; above 42 µM in the test with MDA-MB-231 breast; above 23.9 µM in the test with T-47D breast; above 48.9 µM with KM12 colon; above 35.9 µM with SK-MEL-2 melanoma; above 59.1 µM in the test on UACC-62 melanoma. The TGI with RPMI-8226 leukemia is above 100 µM; with SW-620 colon it was above 37 µM; with IGROV1 ovarian, above 33.8 µM; in the test with NCI-H522 lung, above 46.3 µM; in the test on SF-539 CNS it was above 22 µM.
As for `COc1ccc(/C(Br)=C2\OC(=O)c3ccccc32)cc1`, the TGI in the test with SNB-75 CNS, in the test with MDA-MB-231 breast, in the test on T-47D breast, in the test with KM12 colon, with SK-MEL-2 melanoma and with UACC-62 melanoma was above 10 µM each time. Further, the TGI in the test with RPMI-8226 leukemia, in the test with SW-620 colon, in the test on IGROV1 ovarian, in the test on NCI-H522 lung and in the test with SF-539 CNS was above 10 µM each time.
On to `CCOC(=O)c1nc2cc(C(F)(F)F)ccc2nc1Nc1ccc(OC)cc1`, for which the TGI in the test with SNB-75 CNS, in the test with MDA-MB-231 breast, in the test on T-47D breast, in the test on KM12 colon, in the test on SK-MEL-2 melanoma and with UACC-62 melanoma was above 100 µM in each case. In addition, the TGI with RPMI-8226 leukemia, in the test with SW-620 colon, with IGROV1 ovarian, in the test on NCI-H522 lung and in the test on SF-539 CNS was above 100 µM in each case.
`CC(C)=CCN1CC(C)C(=O)Nc2ccccc21` (centres undefined): the TGI in the test with MDA-MB-231 breast, in the test with T-47D breast, in the test on KM12 colon, with SK-MEL-2 melanoma, in the test on RPMI-8226 leukemia and in the test with SW-620 colon was above 100 µM in each case. Also, the TGI with IGROV1 ovarian, in the test with MALME-3M melanoma, in the test with NCI-H522 lung and in the test on SF-539 CNS was above 100 µM each time.
`CCc1c(C)c(C#N)c(=S)n(C2OC(COC(C)=O)C(OC(C)=O)C(OC(C)=O)C2OC(C)=O)c1-c1ccccc1` (centres undefined): the TGI in the test with MDA-MB-231 breast was above 31.6 µM; with T-47D breast, above 31.6 µM; in the test on KM12 colon, above 31.6 µM; in the test on SK-MEL-2 melanoma it was above 31.6 µM; in the test on RPMI-8226 leukemia, above 100 µM; in the test with SW-620 colon, above 100 µM. The TGI with IGROV1 ovarian, in the test with MALME-3M melanoma, in the test on NCI-H522 lung and in the test on SF-539 CNS was above 31.6 µM each time.
Take `COc1ccc(N2C(=O)/C(=C\c3cc(OC)c(OC)c(OC)c3)SC2c2ccccc2)cc1` (centres undefined): the TGI in the test on MDA-MB-231 breast, in the test on T-47D breast, with KM12 colon, in the test on SK-MEL-2 melanoma, with UACC-62 melanoma and in the test with RPMI-8226 leukemia was above 100 µM throughout. Further, the TGI in the test with SW-620 colon, with MALME-3M melanoma, in the test on NCI-H522 lung and in the test on SF-539 CNS was above 100 µM in each case.
For the compound `CCCCCCCC1(N=[N+]=[N-])C(=O)Nc2ccccc2C1=O` (centres undefined), the TGI in the test on SNB-75 CNS came to 27.1 µM; in the test with MDA-MB-231 breast, 41.3 µM; with T-47D breast, 35 µM; in the test with KM12 colon, 57.7 µM; with SK-MEL-2 melanoma, 32.7 µM; in the test with UACC-62 melanoma, 23.8 µM. Moreover, the TGI was above 100 µM with RPMI-8226 leukemia; 26.4 µM in the test on SW-620 colon; 25.6 µM in the test with IGROV1 ovarian; 33.4 µM in the test on MALME-3M melanoma; 29.6 µM in the test on SF-539 CNS.
On to `O=C1Cc2c([nH]c3ccc(Br)cc23)-c2cc(O)c(O)cc2N1`, for which the TGI in the test with SNB-75 CNS, with MDA-MB-231 breast, in the test on T-47D breast, in the test on KM12 colon, with SK-MEL-2 melanoma and in the test with UACC-62 melanoma was above 100 µM in each case. Also, the TGI with RPMI-8226 leukemia, in the test on SW-620 colon and in the test on NCI-H522 lung was above 100 µM in each case.
Regarding `CC1(C)OCC([C@H]2O[C@@H](CC(=S)NCCCCCCCCCCCCNC(=S)C[C@H]3O[C@@H](C4COC(C)(C)O4)[C@H]4OC(C)(C)O[C@H]43)[C@H]3OC(C)(C)O[C@H]32)O1` (some centres undefined), the TGI with SNB-75 CNS was above 100 µM; in the test with MDA-MB-231 breast, above 100 µM; in the test with T-47D breast it was above 100 µM; with KM12 colon it was above 100 µM; in the test with SK-MEL-2 melanoma, above 100 µM; in the test with RPMI-8226 leukemia, 68.8 µM. The TGI in the test with SW-620 colon, with IGROV1 ovarian, in the test with NCI-H522 lung and in the test on SF-539 CNS was above 100 µM throughout.
Take `COC(=O)c1ccc(S)c(S(=O)(=O)Nc2n[nH]c(N)n2)c1`: the TGI in the test with MDA-MB-231 breast, with T-47D breast, in the test on KM12 colon, with SK-MEL-2 melanoma, in the test with UACC-62 melanoma and in the test with RPMI-8226 leukemia was above 100 µM each time. Further, the TGI in the test with SW-620 colon, in the test on IGROV1 ovarian, with MALME-3M melanoma, in the test with NCI-H522 lung and with SF-539 CNS was above 100 µM in each case.

The values above are taken from PubChem BioAssay (NCI).
